For ten compounds, MIC results are on record in ChEMBL document CHEMBL2321764, “Synthesis and antibacterial activities of new piperidine substituted (5R)-[1,2,3]triazolylmethyl and (5R)-[(4-F-[1,2,3]triazolyl)methyl] oxazolidinones” (Bioorg Med Chem Lett, 2013).

Converted amounts (≈) assume the structure as drawn.

Common to all, as to type: functional
Test [1] relates to Streptococcus pneumoniae. In words: Antibacterial activity against penicillin-resistant Streptococcus pneumoniae C402 by agar dilution method. (Agar dilution tests growth on a series of plates holding different concentrations.)
Test [2] has as its system Enterococcus faecalis. In words: Antibacterial activity against vancomycin-resistant Enterococcus faecalis C474 by agar dilution method.
Test [3] concerns Haemophilus influenzae. In words: Antibacterial activity against betalactamase positive Haemophilus influenzae by agar dilution method.
Test [4] relates to Streptococcus pyogenes. In words: Antibacterial activity against Streptococcus pyogenes 308A by agar dilution method.
Test [5] relates to Staphylococcus. In words: Antibacterial activity against methicillin-resistant coagulase negative Staphylococcus by agar dilution method.
Test [6] deals with Staphylococcus aureus. In words: Antibacterial activity against methicillin-resistant Staphylococcus aureus C463 by agar dilution method.
Test [7] relates to Streptococcus agalactiae. In words: Antibacterial activity against Streptococcus agalactiae ATCC 2901 by agar dilution method.
Test [8] concerns Enterococcus faecium. Kind of test: Antibacterial activity against vancomycin-resistant Enterococcus faecium C803 by agar dilution method.

With `CCOC(=O)C=C1CCN(c2ccc(N3C[C@H](Cn4cc(F)nn4)OC3=O)cc2F)CC1`, the MIC in test [1] is 6.25 µg/mL (≈ 14 µM); in test [2] it was 100 µg/mL (≈ 223 µM); in test [3] it was 6.25 µg/mL (≈ 14 µM); in test [4], 50 µg/mL (≈ 112 µM); in test [5] it was 100 µg/mL (≈ 223 µM); in test [6], 100 µg/mL (≈ 223 µM). The MIC in test [7] and in test [8] was 100 µg/mL (≈ 223 µM) each time.
For the compound `COC(=O)C=C1CCN(c2ccc(N3C[C@H](Cn4ccnn4)OC3=O)cc2F)CC1`, the MIC in test [1] worked out at 0.78 µg/mL (≈ 1.88 µM); in test [2], 3.12 µg/mL (≈ 7.51 µM); in test [3], 1.56 µg/mL (≈ 3.76 µM); in test [4], 0.78 µg/mL (≈ 1.88 µM); in test [5], 3.12 µg/mL (≈ 7.51 µM); in test [6], 3.12 µg/mL (≈ 7.51 µM). Further, the MIC in test [7] worked out at 1.56 µg/mL (≈ 3.76 µM); in test [8], 6.25 µg/mL (≈ 15 µM).
For `CCOC(=O)C(C)=C1CCN(c2ccc(N3C[C@H](Cn4ccnn4)OC3=O)cc2F)CC1`, the MIC in test [1] was 0.78 µg/mL (≈ 1.76 µM); in test [2], 6.25 µg/mL (≈ 14.1 µM); in test [3], 1.56 µg/mL (≈ 3.52 µM); in test [4], 0.78 µg/mL (≈ 1.76 µM); in test [5], 12.5 µg/mL (≈ 28.2 µM); in test [6], 12.5 µg/mL (≈ 28.2 µM). Also, the MIC in test [7] was 1.56 µg/mL (≈ 3.52 µM); in test [8] it was 6.25 µg/mL (≈ 14.1 µM).
As for `CCOC(=O)C(C)=C1CCN(c2ccc(N3C[C@H](Cn4cc(F)nn4)OC3=O)cc2F)CC1`, the MIC in test [1], in test [2], in test [3], in test [4], in test [5] and in test [6] was 100 µg/mL (≈ 217 µM) throughout. For the same compound, the MIC in test [7] and in test [8] was 100 µg/mL (≈ 217 µM) throughout.
As for `CCOC(=O)C(Cl)=C1CCN(c2ccc(N3C[C@H](Cn4ccnn4)OC3=O)cc2F)CC1`, the MIC turned out to be 12.5 µg/mL (≈ 26.9 µM) in test [1]; 12.5 µg/mL (≈ 26.9 µM) in test [2]; 6.25 µg/mL (≈ 13.5 µM) in test [3]; 6.25 µg/mL (≈ 13.5 µM) in test [4]; 25 µg/mL (≈ 53.9 µM) in test [5]; 25 µg/mL (≈ 53.9 µM) in test [6]. Further, the MIC in test [7] amounted to 6.25 µg/mL (≈ 13.5 µM); in test [8], 25 µg/mL (≈ 53.9 µM).
On to `CCOC(=O)C(Cl)=C1CCN(c2ccc(N3C[C@H](Cn4cc(F)nn4)OC3=O)cc2F)CC1`, for which the MIC in test [1] turned out to be 100 µg/mL (≈ 208 µM); in test [2], 100 µg/mL (≈ 208 µM); in test [3] it was 50 µg/mL (≈ 104 µM); in test [4], 50 µg/mL (≈ 104 µM); in test [5], 100 µg/mL (≈ 208 µM); in test [6], 100 µg/mL (≈ 208 µM). Besides, the MIC amounted to 25 µg/mL (≈ 51.9 µM) in test [7] and 100 µg/mL (≈ 208 µM) in test [8].
As for `N#CC1(O)CCN(c2ccc(N3C[C@H](Cn4ccnn4)OC3=O)cc2F)CC1`, the MIC in test [1] was 0.78 µg/mL (≈ 2.02 µM); in test [2] it was 3.12 µg/mL (≈ 8.07 µM); in test [3], 1.56 µg/mL (≈ 4.04 µM); in test [4], 0.78 µg/mL (≈ 2.02 µM); in test [5], 3.12 µg/mL (≈ 8.07 µM); in test [6] it was 3.12 µg/mL (≈ 8.07 µM). Besides, the MIC in test [7] amounted to 1.56 µg/mL (≈ 4.04 µM); in test [8] it was 3.12 µg/mL (≈ 8.07 µM).
In the case of `N#CC1(O)CCN(c2ccc(N3C[C@H](Cn4cc(F)nn4)OC3=O)cc2F)CC1`, the MIC in test [1] was 6.25 µg/mL (≈ 15.5 µM); in test [2] it was 100 µg/mL (≈ 247 µM); in test [3] it was 6.25 µg/mL (≈ 15.5 µM); in test [4] it was 6.25 µg/mL (≈ 15.5 µM); in test [5], 100 µg/mL (≈ 247 µM); in test [6] it was 100 µg/mL (≈ 247 µM). Also, the MIC is 12.5 µg/mL (≈ 30.9 µM) in test [7] and 100 µg/mL (≈ 247 µM) in test [8].
As for `N#CC1=CCN(c2ccc(N3C[C@H](Cn4ccnn4)OC3=O)cc2F)CC1`, the MIC stood at 1.56 µg/mL (≈ 4.23 µM) in test [1]; 3.12 µg/mL (≈ 8.47 µM) in test [2]; 1.56 µg/mL (≈ 4.23 µM) in test [3]; 1.56 µg/mL (≈ 4.23 µM) in test [4]; 3.12 µg/mL (≈ 8.47 µM) in test [5]; 3.12 µg/mL (≈ 8.47 µM) in test [6]. Besides, the MIC is 1.56 µg/mL (≈ 4.23 µM) in test [7] and 3.12 µg/mL (≈ 8.47 µM) in test [8].
As to `N#CC1=CCN(c2ccc(N3C[C@H](Cn4cc(F)nn4)OC3=O)cc2F)CC1`, the MIC stood at 6.25 µg/mL (≈ 16.2 µM) in test [1]; 50 µg/mL (≈ 129 µM) in test [2]; 6.26 µg/mL (≈ 16.2 µM) in test [3]; 50 µg/mL (≈ 129 µM) in test [4]; 100 µg/mL (≈ 259 µM) in test [5]; 100 µg/mL (≈ 259 µM) in test [6]. Besides, the MIC in test [7] came out at 100 µg/mL (≈ 259 µM); in test [8], 50 µg/mL (≈ 129 µM).
